pIC50: −log10 of the molar value.
Tests used:
Aurora Kinase 1 = target: T1, Aurora Kinase 1 (Homo sapiens, UniProt Q96GD4); experiment: capture ELISA measuring Aurora Kinase 1 autophosphorylation in HT29 colon carcinoma cells; assay type: cell-based; details: HT29 cells synchronized for 24 hours, compound treatment 2 hours
T1 construct: endogenous in cells; host or cells: HT29 colon carcinoma cells
Experimental: To determine the ability of compounds to inhibit Aurora Kinase 1 activity in cells, a capture ELISA measuring Aurora Kinase 1 autophosphorylation was developed in HT29 colon carcinoma cells (Yasui Y, et al 2004). Briefly, 15,000 cells/well were seeded in a 96-well collagen coated plates in RPMI+10% FBS and incubated at 37° C. in 5% CO2 overnight. The following day, the cells were treated with 166 nM nacadazole compounds for 24 hours at 37° C. Synchronized cells were further treated with compounds for 2 hours. Compound dilutions were prepared from 0.1 mM DMSO stocks such that 1.1 μL of each dilution was added to obtain a final concentration ranging from 10 μM to 13 nM in one-third log steps. Following compound treatment, plates were centrifuged at 1000 rpm for 2 minutes and washed twice with 100 μL of cold sterile TBS. Cells were then lysed (100 μL of 150 mM NaCl, 20 mM Tris, pH 7.5, 1 mM EDTA, 1 mM EGTA, 1% Triton-x-100 plus protease and phosphatase inhibitors) by shaking at 4° C. for 1 hour. Cell lysates were transferred to plates pre-coated with anti-phospho mAur1 (Rockland, 600-401-677) and blocked with 5% blocker A in TBS from Meso Scale Discovery. After incubating for 1 hour at RT, plates were washed with 300 μL of TBST for a total of three times. The supernatant was removed and replaced with 50 μL of diluted primary antibody (anti-Aurora Kinase 1, Pharmingen, 611083) at 1:1000 in 2% blocker A in TBS and incubated at room temperature for 1 hour. The antibody buffer was removed from each well and washed three times with 300 μL of cold TBS-T ([…] Tris pH 8.0, 138 mM NaCl, 2.7 mM KCL, 0.05% Tween 20). The wash buffer was replaced with 50 μL of secondary antibody (Sulfa TAG anti-mouse, Meso Scale Discovery) at 1:1000 in 2% blocker A and incubated at room temperature for 1 hour. For the final readout with the Sector 6000, 150 μL of reading buffer T was added and the plates were read immediately.

[1] = target: T2, murine Aurora Kinase 1 (mAur1) (Mus musculus, UniProt O70126); experiment: murine Aurora Kinase 1 (mAur1) biochemical Scintillation Proximity Assay; details: SPA, biotinylated Peptide 830, 1 μM ATP, 12 nM GST-tagged mAur 1 co-expressed with human INCENP
T2 construct: recombinant, GST-tagged mAur 1 (amino acids 67-345) that was co-expressed with human INCENP; GST; made in house
T2 sequence (O70126 67-345): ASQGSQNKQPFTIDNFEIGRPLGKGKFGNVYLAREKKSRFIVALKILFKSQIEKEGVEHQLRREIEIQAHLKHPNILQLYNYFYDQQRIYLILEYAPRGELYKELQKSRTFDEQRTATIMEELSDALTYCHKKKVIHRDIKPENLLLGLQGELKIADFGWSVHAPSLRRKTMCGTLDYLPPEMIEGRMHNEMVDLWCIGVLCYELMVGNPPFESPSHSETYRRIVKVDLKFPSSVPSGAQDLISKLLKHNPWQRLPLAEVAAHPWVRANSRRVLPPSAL
T2 sequence (Q9NQS7 704-918 partner): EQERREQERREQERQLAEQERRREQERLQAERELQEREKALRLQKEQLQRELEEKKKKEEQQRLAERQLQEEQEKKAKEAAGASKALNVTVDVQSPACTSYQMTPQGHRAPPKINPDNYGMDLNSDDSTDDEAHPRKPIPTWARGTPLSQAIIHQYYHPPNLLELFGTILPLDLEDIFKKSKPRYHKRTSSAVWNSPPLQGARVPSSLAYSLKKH
Experimental: (§1) Using a Scintillation Proximity Assay (SPA) format, the murine Aurora Kinase 1 (mAur1) and murine Aurora Kinase 2 (mAur2) biochemical assay measures the ability of mAur2 to phosphorylate the substrate, biotinylated Peptide 830 (DRT, Protein Sciences). Once radiolabeled by the enzyme, the biotinylated substrate is captured on streptavidin-coated SPA beads and the radioactivity, in proximity to the SPA beads, is measured. For the generation of IC50 curves, the reaction was performed in 96-well isoplates (Wallac 1450-514) under the following conditions: a 10 mM stock solution of compound (in 100% dimethylsulfoxide; DMSO) was diluted 10 fold in 100% DMSO. Compounds were then serially diluted, 1:5, for an eight point dose curve, in 100% DMSO. A volume of 1 μL of the diluted compound was added to the reaction buffer that consisted of 25 mM HEPES pH 7.5, 1 mM MnCl2, 1 mM MgCl2, 1 mM DTT, 0.01% Tween20. A mixture with a final concentration per well of 1 μM cold ATP, 0.1 μCi ^33P-ATP (Amersham AH9968) and 1 μM biotinylated Peptide 830 was then added. The reaction was initiated with the addition of either recombinant, GST-tagged mAur 1 (amino acids 67-345) that was co-expressed with human INCENP (amino acids 704-919) (DRT, Protein Sciences) at a final concentration of 12 nM or N-terminal His-tagged mAur2 (amino acids 98-395; DRT, Protein Sciences) at a final concentration of 20 nM. The final reaction volume in each well was 100 μL and the final compound concentration ranged from 10 μM-[…] in 1% DMSO. The reaction mixture was allowed to incubate for 1-2 hours with gentle agitation at 25° C. To terminate the reaction, streptavidin-coated SPA beads (Amersham RPNQ0007; 50 μL of 0.5 mg beads dissolved in 165 mM EDTA) were then added to each well and incubation proceeded for an additional 15 minutes at 25° C. The plate was then centrifuged for ten minutes at 2000 rpm. Phosphorylation of the peptide substrate was measured using a Wallac 1450 Microbeta Plus Liquid Scintillation Counter.

[2] = target: T3, murine Aurora Kinase 2 (mAur2) (Mus musculus, UniProt P97477); experiment: murine Aurora Kinase 2 (mAur2) biochemical Scintillation Proximity Assay; details: SPA, biotinylated Peptide 830, 1 μM ATP, 20 nM His-tagged mAur2
T3 construct: N-terminal His-tagged mAur2 (amino acids 98-395; DRT, Protein Sciences); His (N); made in house
T3 sequence (P97477 98-395): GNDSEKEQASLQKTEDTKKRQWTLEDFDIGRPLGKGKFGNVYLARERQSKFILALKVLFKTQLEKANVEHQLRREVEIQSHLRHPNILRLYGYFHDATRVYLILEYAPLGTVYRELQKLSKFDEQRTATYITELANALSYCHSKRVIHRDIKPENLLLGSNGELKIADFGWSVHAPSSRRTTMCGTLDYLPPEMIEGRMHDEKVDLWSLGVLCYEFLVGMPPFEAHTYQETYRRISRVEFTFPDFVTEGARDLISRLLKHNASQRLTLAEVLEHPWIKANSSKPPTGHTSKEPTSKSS
Experimental: as §1

T1 sequence (Q96GD4 whole entry): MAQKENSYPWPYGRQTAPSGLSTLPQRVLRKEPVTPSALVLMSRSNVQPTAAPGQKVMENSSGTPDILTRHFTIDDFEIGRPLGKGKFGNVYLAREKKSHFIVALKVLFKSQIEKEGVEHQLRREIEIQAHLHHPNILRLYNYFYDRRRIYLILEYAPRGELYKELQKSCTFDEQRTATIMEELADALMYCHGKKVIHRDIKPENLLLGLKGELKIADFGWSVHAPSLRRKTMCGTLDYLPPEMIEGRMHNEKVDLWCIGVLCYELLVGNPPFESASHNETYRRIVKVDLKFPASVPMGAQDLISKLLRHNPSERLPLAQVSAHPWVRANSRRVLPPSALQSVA

pIC50 (Aurora Kinase 1) | pIC50 [1] | pIC50 [2] | Compound
> 6.00 |  |  | CC(C)(C)c1ccc2nc(Nc3ccc(-c4c(C(=O)NCC(F)(F)F)cn5ncnc(N)c45)cc3)[nH]c2c1 [Example 10, 4-amino-5-{4-[(6-tert-butyl-1H-benzimidazol-2-yl)amino]phenyl}-N-(2,2,2-trifluoroethyl)pyrrolo[2,1-f][1,2,4]triazine-6-carboxamide]
> 6.00 |  |  | Nc1ncnn2cc(C(=O)NCC(F)(F)F)c(-c3ccc(Nc4nc5ccc(N6CCCC6)nc5[nH]4)cc3)c12 [Example 20, 4-amino-5-{4-[(5-pyrrolidin-1-yl-3H-imidazo[4,5-b]pyridin-2-yl)amino]phenyl}-N-(2,2,2-trifluoroethyl)pyrrolo[2,1-f][1,2,4]triazine-6-carboxamide]
> 6.00 |  |  | Nc1ncnn2cc(C(=O)NCC(F)(F)F)c(-c3ccc(Nc4nc5ccc(OC(F)(F)F)cc5[nH]4)cc3)c12 [Example 31, 4-amino-N-(2,2,2-trifluoroethyl)-5-(4-{[6-(trifluoromethoxy)-1H-benzimidazol-2-yl]amino}phenyl)pyrrolo[2,1-f][1,2,4]triazine-6-carboxamide]
 | > 7.00 | > 7.00 | Nc1ncnn2cc(C(=O)N3CCCC3)c(-c3ccc(Nc4nc5cc(F)cc(F)c5[nH]4)cc3)c12 [Example 96, 5-{4-[(5,7-difluoro-1H-benzimidazol-2-yl)amino]phenyl}-6-(pyrrolidin-1-ylcarbonyl)pyrrolo[2,1-f][1,2,4]triazin-4-amine]
 | > 7.00 | > 7.00 | Nc1ncnn2cc(C(=O)O)c(-c3ccc(Nc4nc5ccc(Oc6ccccc6)c(F)c5[nH]4)cc3)c12 [Example 101, 4-amino-5-{4-[(7-fluoro-6-phenoxy-1H-benzimidazol-2-yl)amino]phenyl}pyrrolo[2,1-f][1,2,4]triazine-6-carboxylic acid]
 | > 7.00 | > 7.00 | Nc1ncnn2cc(C(=O)NC3CC3)c(-c3ccc(Nc4nc5ccc(Oc6ccccc6)c(F)c5[nH]4)cc3)c12 [Example 105, 4-amino-N-cyclopropyl-5-{4-[(7-fluoro-6-phenoxy-1H-benzimidazol-2-yl)amino]phenyl}pyrrolo[2,1-f][1,2,4]triazine-6-carboxamide]
 | > 7.00 | > 7.00 | CCN(C)C(=O)c1cn2ncnc(N)c2c1-c1ccc(Nc2nc3ccc(Oc4ccccc4)c(F)c3[nH]2)cc1 [Example 106, 4-amino-N-ethyl-5-{4-[(7-fluoro-6-phenoxy-1H-benzimidazol-2-yl)amino]phenyl}-N-methylpyrrolo[2,1-f][1,2,4]triazine-6-carboxamide]
 | > 7.00 | > 7.00 | Nc1ncnn2cc(C(=O)N3CCCCC3)c(-c3ccc(Nc4nc5ccc(Oc6ccccc6)c(F)c5[nH]4)cc3)c12 [Example 107, 5-{4-[(7-fluoro-6-phenoxy-1H-benzimidazol-2-yl)amino]phenyl}-6-(piperidin-1-ylcarbonyl)pyrrolo[2,1-f][1,2,4]triazin-4-amine]
 | > 7.00 | > 7.00 | Nc1ncnn2cc(C(=O)N3CCOCC3)c(-c3ccc(Nc4nc5ccc(Oc6ccccc6)c(F)c5[nH]4)cc3)c12 [Example 108, 5-{4-[(7-fluoro-6-phenoxy-1H-benzimidazol-2-yl)amino]phenyl}-6-(morpholin-4-ylcarbonyl)pyrrolo[2,1-f][1,2,4]triazin-4-amine]
 | > 7.00 | > 7.00 | COCCNC(=O)c1cn2ncnc(N)c2c1-c1ccc(Nc2nc3ccc(Oc4ccccc4)c(F)c3[nH]2)cc1 [Example 110, 4-amino-5-{4-[(7-fluoro-6-phenoxy-1H-benzimidazol-2-yl)amino]phenyl}-N-(2-methoxyethyl)pyrrolo[2,1-f][1,2,4]triazine-6-carboxamide]
 | > 7.00 | > 7.00 | CC(C)CNC(=O)c1cn2ncnc(N)c2c1-c1ccc(Nc2nc3ccc(Oc4ccccc4)c(F)c3[nH]2)cc1 [Example 111, 4-amino-5-{4-[(7-fluoro-6-phenoxy-1H-benzimidazol-2-yl)-amino]phenyl}-N-isobutylpyrrolo[2,1-f][1,2,4]triazine-6-carboxamide]
 | > 7.00 | > 7.00 | Nc1ncnn2cc(C(=O)NC3CCCC3)c(-c3ccc(Nc4nc5ccc(Oc6ccccc6)c(F)c5[nH]4)cc3)c12 [Example 112, 4-amino-N-cyclopentyl-5-{4-[(7-fluoro-6-phenoxy-1H-benzimidazol-2-yl)amino]phenyl}pyrrolo[2,1-f][1,2,4]triazine-6-carboxamide]
 | > 7.00 | > 7.00 | Nc1ncnn2cc(C(=O)N3CCCC3)c(-c3ccc(Nc4nc5ccc(Oc6ccccc6)c(F)c5[nH]4)cc3)c12 [Example 113, 5-{4-[(7-fluoro-6-phenoxy-1H-benzimidazol-2-yl)amino]phenyl}-6-(pyrrolidin-1-ylcarbonyl)pyrrolo[2,1-f][1,2,4]triazin-4-amine]
 | > 7.00 | > 7.00 | Cc1ccc(-c2ccc3nc(Nc4ccc(-c5c(C(=O)NCC(F)(F)F)cn6ncnc(N)c56)cc4)[nH]c3n2)cc1 [Example 115, 4-amino-5-(4-{[5-(4-methylphenyl)-3H-imidazo[4,5-b]pyridin-2-yl]amino}phenyl)-N-(2,2,2-trifluoroethyl)pyrrolo[2,1-f][1,2,4]triazine-6-carboxamide]
 | > 7.00 | > 7.00 | COCc1cccc(-c2ccc3nc(Nc4ccc(-c5c(C(=O)NCC(F)(F)F)cn6ncnc(N)c56)cc4)[nH]c3n2)c1 [Example 116, 4-amino-5-[4-({5-[3-(methoxymethyl)phenyl]-3H-imidazo[4,5-b]pyridin-2-yl}amino)phenyl]-N-(2,2,2-trifluoroethyl)pyrrolo[2,1-f][1,2,4]triazine-6-carboxamide]
 | > 7.00 | > 7.00 | Nc1ncnn2cc(C(=O)O)c(-c3ccc(Nc4nc5ccc(C(F)(F)F)nc5[nH]4)cc3)c12 [Example 119]
 | > 7.00 | > 7.00 | Nc1ncnn2cc(C(=O)NCC(F)(F)F)c(-c3ccc(Nc4nc5ccc(C(F)(F)F)nc5[nH]4)cc3)c12 [Example 120, 4-amino-N-(2,2,2-trifluoroethyl)-5-(4-{[5-(trifluoromethyl)-3H-imidazo[4,5-b]pyridin-2-yl]amino}phenyl)pyrrolo[2,1-f][1,2,4]triazine-6-carboxamide]

Source: patent US8338594B2, “Pyrrolotriazine derivatives useful for treating cancer through inhibition of aurora kinase” (Bayer HealthCare LLC, priority 2005, dated 2012)
